Reference: patent publication US9512175B2, “Macrocyclic inhibitors of flaviviridae viruses” (Gilead Sciences, Inc., priority 2012, dated 2016)
pIC50: −log10 of the molar value. Like-named read-outs stand apart in the source and are kept apart here.

Assays:
[1] = rcm bond
[2] = from C=Cc1ccc2ccc([C@@H](C)OC(=O)[C@@H]3CCCN(C(=O)[C@H](C)NC(=O)[C@@H](NC(=O)[C@@H](/C=C/C)CC4CC4)C(C)C)N3)nc2c1; rcm bond; 21-membered ring; Hoveyda-Grubbs II (3x20 mol%); 1,2-dichloroethane; 2.44 mM; 80.0 °C
cyclophilin A = cyclophilin A (Homo sapiens, UniProt P62937); test: Cyclophilin A TR-FRET competitive binding assay; conditions: IC50 ranges, competition with CsA-Cy5 for His-tagged CypA, two-hour incubation
Method: Cyclophilin A TR-FRET Competitive Binding Assay
Inhibitor potency was measured using a competitive binding assay with a time-resolved fluorescence resonance energy transfer (TR-FRET) readout. […] An IC50 value was calculated using a four-parameter logistic fit.

[3] = test system: HCV replicon (Replicon 1a); test: anti-HCV activity in Huh-7 cell line harboring a HCV replicon (Replicon 1a); assay type: cell-based; conditions: for inhibition at 1 µM: Hepatitis C virus, Huh-7, 72 h
[4] = read-out: Replicon 1a % inhibition at 1 μM, 1 μM, human hepatoma Huh-7 HCV replicon cells, 3 days, luciferase readout
[5] = read-out: Replicon 1a % inhibition at 1 μM

Sequence of cyclophilin A (P62937 whole entry, species assumed): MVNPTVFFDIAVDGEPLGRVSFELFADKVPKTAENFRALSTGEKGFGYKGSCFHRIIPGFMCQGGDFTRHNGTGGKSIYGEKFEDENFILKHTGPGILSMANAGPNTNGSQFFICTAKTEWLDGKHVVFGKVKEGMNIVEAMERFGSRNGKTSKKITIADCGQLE

Row | Compound | pIC50 (cyclophilin A; read-out: TR-FRET) | inhibition at 1 µM [3, 4] | other results
1 | CC(C)[C@@H]1NC(=O)CC=Cc2cc3cc(ccc3cn2)[C@@H](C)NC(=O)[C@@H]2CCCN(N2)C(=O)[C@H](C)NC1=O |  |  | ring closure, isolated yield ([1]; from C=CCC(=O)N[C@H](C(=O)N[C@@H](C)C(=O)N1CCC[C@@H](C(=O)N[C@H](C)c2ccc3cnc(C=C)cc3c2)N1)C(C)C, 21-membered ring, Hoveyda-Grubbs II (2 x 10 mol%), toluene, 3.86 mM): 1%
2 | (E)-pent-3-enoyl-hPhe-Ala-Piz-O-(R)-1-(3-vinyl-isoquinolin-6-yl)ethyl ester? |  |  | ring closure, isolated yield ([1]; the molecule shown is the open-chain precursor, 21-membered ring, Hoveyda-Grubbs II (portions), chlorobenzene, 4.8 mM, 110.0 °C): 12%
3 | CC(C)[C@@H]1NC(=O)[C@H](CC2CC2)C=Cc2ccc3ccc(nc3c2)[C@@H](C)OC(=O)[C@@H]2CCCN(N2)C(=O)[C@H](C)NC1=O |  |  | ring closure, yield after HPLC [2]: 1.3%
4 | CC(C)[C@@H]1NC(=O)C/C=C/c2ccc3ccc(cc3n2)[C@@H](C)OC(=O)[C@@H]2CCCN(N2)C(=O)[C@H](C)NC1=O [Compound 16] | 6.00 to 7.00 | 94% | 
5 | CC(=O)N1CCC2(/C=C/c3ccc4ccc(nc4c3)[C@@H](C)OC(=O)[C@@H]3CCCN(N3)C(=O)[C@H](C)NC(=O)[C@H](C(C)C)NC2=O)CC1 [Compound 135] | > 7.00 | 94% | 
6 | CC(C)[C@@H]1NC(=O)C(C)(C(C)O)/C=C/c2ccc3ccc(nc3c2)[C@@H](C)OC(=O)[C@@H]2CCCN(N2)C(=O)[C@H](C)NC1=O (stereo partly drawn) [Compound 89] | > 7.00 | 99% | 
7 | CO[C@@H]1/C=C/c2cc3cc(ccc3cn2)[C@@H](C)OC(=O)[C@]2(C)CCCN(N2)C(=O)[C@H](C)NC(=O)[C@H](C(C)C)NC(=O)[C@@H]1C (single isomer, unassigned) [Compound 34] | > 7.00 | 92% | 
8 | CC(C)[C@@H]1NC(=O)[C@]2(/C=C/c3ccc4ccc(nc4c3)[C@@H](C)OC(=O)[C@@H]3CCCN(N3)C(=O)[C@H](C)NC1=O)CC[C@@H](O)CC2 [Compound 160] | > 7.00 | 98% | 
9 | CC(C)[C@@H]1NC(=O)CCc2ccc(cc2)-c2cccc(c2)[C@@H](C)OC(=O)[C@@H]2CCCN(N2)C(=O)[C@H](C)NC1=O [Compound 43] | > 7.00 | 97% | 
10 | CC(C)[C@@H]1NC(=O)CCCCCCc2cc3cc(ccc3cn2)[C@@H](C)OC(=O)[C@@H]2CCCN(N2)C(=O)[C@H](C)NC1=O [Compound 64] | 6.00 to 7.00 | 35% | 
11 | COCc1cc2ccc3cc2nc1[C@@H](C)OC(=O)[C@@H]1CCCN(N1)C(=O)[C@H](C)NC(=O)[C@H](C(C)C)NC(=O)C(C)(C)/C=C/3 [Compound 137] | > 7.00 | 100% | 
12 | Cc1cc2nc3cc(ccc13)/C=C/C(C)(C)C(=O)N[C@@H](C(C)C)C(=O)N[C@@H](C)C(=O)N1CCC[C@H](N1)C(=O)O[C@@H]2C [Compound 144] | > 7.00 | 100% | 
13 | CC(C)[C@@H]1NC(=O)C=Cc2cc3cc(ccc3cn2)[C@@H](C)NC(=O)[C@@H]2CCCN(N2)C(=O)[C@H](C)NC1=O |  |  | ring closure, isolated yield ([1]; from C=Cc1cc2cc([C@@H](C)NC(=O)[C@@H]3CCCN(C(=O)[C@H](C)NC(=O)[C@@H](NC(=O)/C=C/C)C(C)C)N3)ccc2cn1, 20-membered ring, Hoveyda-Grubbs II (2 x 10 mol%), toluene, 3.86 mM): 1.2%
14 | CO[C@@H]1CC/C=C/c2cccc(c2)C2CCCCN2C(=O)[C@@H]2CCCN(N2)C(=O)[C@H](C)NC(=O)[C@H](C(C)C)NC(=O)[C@@H]1C (stereo partly drawn) [Compound 28] | 6.00 to 7.00 | 56% | 
15 | Cc1cc2ccc3cc2nc1[C@@H](C)OC(=O)[C@@H]1CCCN(N1)C(=O)[C@H](C)NC(=O)[C@H](C(C)C)NC(=O)C(C)(C)/C=C/3 [Compound 163] | > 7.00 | 100% | 
16 | CC(C)[C@@H]1NC(=O)[C@]2(CCc3ccc4ccc(nc4c3)[C@@H](C)OC(=O)[C@@H]3CCCN(N3)C(=O)[C@H](C)NC1=O)CC[C@H](O)CC2 [Compound 161] | > 7.00 |  | Replicon 1a % inhibition at 1 μM [3]: 95%
17 | CC(C)[C@@H]1NC(=O)C(C)(C)/C=C/c2ccc3ccc(nc3c2)[C@@H](C)OC(=O)[C@@H]2CCCN(N2)C(=O)[C@H](COCC2(C)COC2)NC1=O [Compound 114] | > 7.00 | 99% | 
18 | C=CC[C@@H]1NC(=O)C(C)(C)/C=C/c2cc3cc(ccc3cn2)[C@@H](C)OC(=O)[C@@H]2CCCN(N2)C(=O)[C@H](C)NC1=O [Compound 52] | > 7.00 | 98% | 

Row | Compound | pIC50 (cyclophilin A; read-out: TR-FRET) | inhibition at 1 µM [3, 4] | other results
19 | CCN1CCC2(/C=C/c3ccc4ccc(nc4c3)[C@@H](C)OC(=O)[C@@H]3CCCN(N3)C(=O)[C@H](C)NC(=O)[C@H](C(C)C)NC2=O)CC1 [Compound 129] | > 7.00 |  | inhibition at 1 µM [3, 5]: 96%
20 | CC(C)[C@@H]1NC(=O)C(C)(C)/C=C/c2ccc3ccc(nc3c2)[C@@H](C)OC(=O)[C@@H]2CCCN(N2)C(=O)[C@H](CC(=O)N(C)C)NC1=O [Compound 97] | > 7.00 | 98% | 
21 | CC(C)[C@@H]1NC(=O)[C@H](C)/C=C/c2ccc3ccc(nc3c2)[C@@H](C)OC(=O)[C@@H]2CCCN(N2)C(=O)[C@H](C)NC1=O [Compound 26] |  |  | pIC50 (cyclophilin A; TR-FRET): > 7.00; inhibition at 1 µM [3, 5]: 99%
22 | CC(C)[C@@H]1NC(=O)C2(/C=C/c3ccc4ccc(nc4c3)[C@@H](C)OC(=O)[C@@H]3CCCN(N3)C(=O)[C@H](C)NC1=O)CCCC2 [Compound 154] | > 7.00 | 100% | 
23 | CC(C)[C@@H]1NC(=O)C/C=C/c2cc3cc(ccc3cn2)[C@@H](C(F)(F)F)NC(=O)[C@@H]2CCCN(N2)C(=O)[C@H](C)NC1=O [Compound 23] | > 7.00 | 99% | 
24 | CC(C)[C@@H]1NC(=O)[C@H](C)[C@H](O)CCCCc2cccc(c2)[C@@H](C)NC(=O)[C@@H]2CCCN(N2)C(=O)[C@H](C)NC1=O [Compound 3, (2R,5S,11S,14S,17R,18R)-18-Hydroxy-14-isopropyl-2,11,17-trimethyl-3,9,12,15,28-pentaaza-tricyclo[21.3.1.1*5,9*]octacosa-1(26),23(27),24-triene-4,10,13,16-tetraone] | > 7.00 | 44% | 
25 | CC(C)[C@@H]1NC(=O)[C@@]2(/C=C/c3ccc4ccc(nc4c3)[C@@H](C)OC(=O)[C@@H]3CCCN(N3)C(=O)[C@H](C)NC1=O)CCCN2S(C)(=O)=O [Compound 156] | > 7.00 | 87% | 
26 | COCCC1(C)/C=C/c2ccc3ccc(nc3c2)[C@@H](C)OC(=O)[C@@H]2CCCN(N2)C(=O)[C@H](C)NC(=O)[C@H](C(C)C)NC1=O (single isomer, unassigned) [Compound 103] | > 7.00 | 100% | 
27 | CC(C)[C@@H]1NC(=O)[C@]2(/C=C/c3ccc4ccc(nc4c3)[C@@H](C)OC(=O)[C@@H]3CCCN(N3)C(=O)[C@H](C)NC1=O)CC[C@H](O)CC2 [Compound 158] | > 7.00 | 100% | 
28 | CC(C)[C@@H]1NC(=O)[C@]2(/C=C/c3ccc4ccc(nc4c3)[C@@H](C)OC(=O)[C@@H]3CCCN(N3)C(=O)[C@H](C)NC1=O)CC[C@](C)(O)CC2 [Compound 174] | > 7.00 | 99% | 
29 | CC(C)[C@@H]1NC(=O)CCc2ccc(cn2)-c2cccc(c2)[C@@H](C)OC(=O)[C@@H]2CCCN(N2)C(=O)[C@H](C)NC1=O [Compound 44] | > 7.00 | 78% | 
30 | CO[C@@H]1/C=C/COc2cccc(c2)[C@@H](C(C)C)NC(=O)[C@@H]2CCCN(N2)C(=O)[C@H](C)NC(=O)[C@H](C(C)C)NC(=O)[C@@H]1C [Compound 37, (E)-(2R,5S,11 S,14S,17R,18R)-2,14-Diisopropyl-18-methoxy-11,17-dimethyl-22-oxa-3,9,12,15,28-pentaaza-tricyclo[21.3.1.1*5,9*]octacosa-1 (27),19,23,25-tetraene-4,10,13,16-tetraone] |  |  | pIC50 (cyclophilin A; TR-FRET): > 7.00; inhibition at 1 µM [3, 5]: 76%
31 | CC(C)[C@@H]1NC(=O)C(C)(C)/C=C/c2ccc3ccc(nc3c2)[C@@H](C)OC(=O)[C@@H]2CCCN(N2)C(=O)[C@H](CC(=O)N2CCCCC2)NC1=O [Compound 98] | > 7.00 |  | inhibition at 1 µM [3, 5]: 95%
32 | C[C@@H]1NC(=O)[C@H](Cc2ccccc2)NC(=O)C/C=C/c2cc3cc(ccc3cn2)[C@@H](C)OC(=O)[C@@H]2CCCN(N2)C1=O [Compound 54] | > 7.00 | 98% | 
33 | CC(C)[C@@H]1NC(=O)[C@@H]([C@@H](C)O)/C=C/c2ccc3ccc(nc3c2)[C@@H](C)OC(=O)[C@@H]2CCCN(N2)C(=O)[C@H](C)NC1=O [Compound 83] | > 7.00 | 99% | 
34 | CC(C)[C@@H]1NC(=O)COc2ccc(cc2)-c2cccc(n2)[C@@H](C)OC(=O)[C@@H]2CCCN(N2)C(=O)[C@H](C)NC1=O [Compound 41] | > 7.00 | 96% | 
35 | CC(C)[C@@H]1NC(=O)COc2ccc(cc2)-c2cccc(c2)[C@@H](C)OC(=O)[C@@H]2CCCN(N2)C(=O)[C@H](C)NC1=O [Compound 38] | > 7.00 | 98% | 
